ChEMBL document CHEMBL5137058, “Therapeutic Strategies to Target the Androgen Receptor” (J Med Chem, 2022)

How the values were obtained:
[1] = target: T1, Androgen receptor (Homo sapiens, UniProt P10275); assay: Antagonist activity at Androgen receptor (unknown origin) in African green monkey COS-1 cells; format: cell-based
T1 sequence (P10275 whole entry): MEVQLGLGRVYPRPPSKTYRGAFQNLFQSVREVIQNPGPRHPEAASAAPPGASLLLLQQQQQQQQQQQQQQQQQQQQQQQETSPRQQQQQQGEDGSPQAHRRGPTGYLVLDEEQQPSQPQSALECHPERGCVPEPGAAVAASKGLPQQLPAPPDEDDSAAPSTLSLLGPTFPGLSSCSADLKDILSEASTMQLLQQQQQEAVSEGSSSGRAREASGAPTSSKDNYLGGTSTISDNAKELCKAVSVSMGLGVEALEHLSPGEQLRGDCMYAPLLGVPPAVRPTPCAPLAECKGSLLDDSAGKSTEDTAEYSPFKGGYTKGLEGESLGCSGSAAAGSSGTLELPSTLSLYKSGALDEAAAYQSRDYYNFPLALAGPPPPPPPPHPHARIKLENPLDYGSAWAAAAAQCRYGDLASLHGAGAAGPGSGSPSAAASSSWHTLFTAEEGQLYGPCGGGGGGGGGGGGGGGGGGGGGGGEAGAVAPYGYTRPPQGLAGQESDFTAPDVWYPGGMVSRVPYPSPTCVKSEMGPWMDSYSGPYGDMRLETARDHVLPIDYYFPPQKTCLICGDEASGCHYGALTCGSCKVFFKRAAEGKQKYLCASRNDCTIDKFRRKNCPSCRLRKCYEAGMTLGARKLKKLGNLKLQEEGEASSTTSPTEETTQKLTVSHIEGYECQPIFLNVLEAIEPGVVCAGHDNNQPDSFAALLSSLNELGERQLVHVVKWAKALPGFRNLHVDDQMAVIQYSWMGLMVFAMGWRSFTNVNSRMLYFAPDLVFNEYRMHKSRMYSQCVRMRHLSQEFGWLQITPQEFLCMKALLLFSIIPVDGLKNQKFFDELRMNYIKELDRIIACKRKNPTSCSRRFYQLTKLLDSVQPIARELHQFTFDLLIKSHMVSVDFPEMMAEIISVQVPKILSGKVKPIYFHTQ

[2] = target: T2, Androgen receptor (Homo sapiens) (UniProt P10275); assay: Displacement of [3H]DHT from Androgen receptor (unknown origin) relative to control; details: filed as antagonist
T2 sequence (whole entry): T1 sequence (P10275 whole entry)

[3] = Antitumor activity against human CWR22Rv cells xenografted in mouse at 10 mg/kg, ip administered for 21 days; format: functional; details: time 21 day
[4] = tested on: HEK-293T; assay: Antiproliferative activity against NTD-over expressed human HEK293T cells after 5 days by MTS assay; format: functional, cell-based; details: 120 h
[5] = tested on: LNCaP; assay: Antiproliferative activity against human LNCaP cells after 5 days by MTS assay; format: functional; details: time 5 day
[6] = Antiproliferative activity against AR-independent human CWR22Rv cells after 5 days by MTS assay; format: functional, cell-based; details: 120 h
[7] = target: T2, Androgen receptor (Homo sapiens); assay: Antagonist activity at Androgen receptor (unknown origin) at 10 uM relative to control; parameters: scale not given: the % may be the effect or the level left; details: filed as antagonist
[8] = tested on: LNCaP C4-2; assay: Antiproliferative activity against AR-independent human LNCaP C4-2 cells after 5 days by MTS assay; format: functional, cell-based; details: LNCaP C4-2, 120 h
[9] = target: T2, Androgen receptor (Homo sapiens); assay: Agonist activity at Androgen receptor (unknown origin) in presence of DHT
[10] = target: T1, Androgen receptor; assay: Antagonist activity at Androgen receptor (unknown origin) assessed as downregulation of AR
[11] = Oral bioavailability in dog; format: ADME, organism-based, Canis lupus familiaris; details: in vivo
[12] = tested on: CWR22R; assay: Antiproliferative activity against human 22Rv1 cells expressing Androgen receptor H874Y mutant; format: functional, cell-based
[13] = tested on: PC-3; assay: Antiproliferative activity against androgen-independent human PC-3 cells; format: functional, cell-based
[14] = tested on: LNCaP; assay: Antiproliferative activity against human LNCaP cells expressing Androgen receptor […] mutant; format: functional, cell-based
[15] = tested on: SC-3; assay: Antiproliferative activity against mouse SC-3 cells; format: functional, cell-based
[16] = target: T1, Androgen receptor; assay: Binding affinity to wild-type Androgen receptor (unknown origin)
[17] = tested on: LNCaP; assay: Antiproliferative activity against human LNCaP cells expressing Androgen receptor T878A mutant; format: functional, cell-based
[18] = tested on: LNCaP; assay: Antiproliferative activity against human LNCaP cells expressing wild-type Androgen receptor; format: functional, cell-based
[19] = target: Androgen receptor (Homo sapiens, UniProt P10275, T878A); assay: Binding affinity to bicalutamide-resistant Androgen receptor T878A mutant (unknown origin)
Sequence of Androgen receptor (Homo sapiens, UniProt P10275, T878A) (P10275 whole entry T878A): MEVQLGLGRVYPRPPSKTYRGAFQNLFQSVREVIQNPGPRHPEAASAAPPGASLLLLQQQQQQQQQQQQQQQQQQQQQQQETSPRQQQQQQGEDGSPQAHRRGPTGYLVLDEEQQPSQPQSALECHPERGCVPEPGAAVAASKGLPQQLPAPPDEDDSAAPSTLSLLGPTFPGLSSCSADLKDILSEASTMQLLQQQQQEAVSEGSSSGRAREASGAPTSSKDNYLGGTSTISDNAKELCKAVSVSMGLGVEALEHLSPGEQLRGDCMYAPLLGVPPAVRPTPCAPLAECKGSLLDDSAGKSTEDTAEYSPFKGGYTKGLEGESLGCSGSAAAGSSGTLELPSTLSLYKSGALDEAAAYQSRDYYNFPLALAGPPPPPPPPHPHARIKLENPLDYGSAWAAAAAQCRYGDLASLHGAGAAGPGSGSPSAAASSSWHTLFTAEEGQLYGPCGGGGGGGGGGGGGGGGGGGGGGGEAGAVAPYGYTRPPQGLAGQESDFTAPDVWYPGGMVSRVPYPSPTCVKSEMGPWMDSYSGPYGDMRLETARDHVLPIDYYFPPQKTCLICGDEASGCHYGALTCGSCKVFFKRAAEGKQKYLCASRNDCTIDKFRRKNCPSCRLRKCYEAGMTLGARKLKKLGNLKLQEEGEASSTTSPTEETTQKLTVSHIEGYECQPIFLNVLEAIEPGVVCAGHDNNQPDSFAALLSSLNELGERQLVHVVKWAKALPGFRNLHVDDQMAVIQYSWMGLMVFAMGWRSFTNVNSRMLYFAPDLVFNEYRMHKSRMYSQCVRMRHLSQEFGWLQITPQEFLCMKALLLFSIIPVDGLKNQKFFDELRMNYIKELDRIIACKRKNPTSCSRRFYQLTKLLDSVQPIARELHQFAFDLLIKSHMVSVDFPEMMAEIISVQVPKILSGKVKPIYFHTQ

[20] = target: T1, Androgen receptor; assay: Agonist activity at Androgen receptor in human 22Rv1 cells cotransfected with pARE-LUC measured by luciferase assay; format: cell-based
[21] = tested on: MR49F; assay: Antiproliferative activity against human MR49F cells; format: functional, cell-based
[22] = tested on: LNCaP; assay: Antiproliferative activity against human LNCaP cells; format: functional, cell-based
[23] = tested on: LNCaP; assay: Antitumor activity against human LNCaP cells xenografted in mouse assessed as decrease in PSA level at 100 mg/kg, sc; format: functional; parameters: scale not given: the % may be the effect or the level left
[24] = target: T1, Androgen receptor
Description: Antagonist activity at Androgen receptor in human LNCaP cells assessed as inhibition of PSA expression

[25] = In vivo agonist activity at Androgen receptor in castrated rat assessed as increase in levator ani muscle weight at 0.11 mg administered orally per day for 14 days; format: functional; details: route po, time 14 day
[26] = In vivo agonist activity at Androgen receptor in castrated male rat assessed as increase in prostate weight at 0.76 mg administered orally per day; format: functional; details: route po
[27] = Antitumor activity against bicalutamide-resistant human LNCaP-cxD2 cells xenografted in mouse at 40 mg/kg, po administered for 28 days; format: functional; details: time 28 day
[28] = target: T1, Androgen receptor; assay: Antagonist activity at wild-type Androgen receptor (unknown origin) expressed in African green monkey COS-7 cells measured as gene transcription level; format: cell-based
[29] = Antitumor activity against bicalutamide-resistant human LNCaP-cxD2 cells xenografted in mouse at 50 mg/kg, po administered for 28 days; format: functional; details: time 28 day
[30] = Oral bioavailability in mouse; format: ADME, organism-based; details: in vivo
[31] = tested on: LNCaP; assay: Antitumor activity against human LNCaP cells expressing Androgen receptor F877L mutant xenografted in mouse assessed as tumor growth inhibition at 30 mg/kg, po administered daily; format: functional; details: read-out: TGI
[32] = tested on: VCaP; assay: Antiproliferative activity against human VCaP cells; format: functional, cell-based
[33] = target: T1, Androgen receptor; assay: Antagonist activity at Androgen receptor (unknown origin) assessed as inhibition of activation function 1 (AF-1) of AR N-terminal transactivation domain (NTD)
[34] = tested on: LNCaP; assay: Antitumor activity against human LNCaP cells xenografted in mouse assessed as decrease in PSA level at 25 mg/kg, sc; format: functional; parameters: scale not given: the % may be the effect or the level left

Compound `N#Cc1ccc(C2=NO[C@H]3CCCC[C@@H]23)cc1C(F)(F)F` has an IC50 [1] of 27.5 nM and an Activity [2] of 99.2%.
With `CCOc1ccc2c(c1OC(C)C)CCN(c1ccc(C(=O)Nc3cccc(C)n3)cn1)C2` the T/C [3] was 65%, the IC50 [4] was 780 nM and the Activity [5] was greater than 90%. The IC50 [6] was 1000 nM, the Activity [7] was greater than 95% and the IC50 [8] was 1000 nM. The Activity [9] was less than 5%.
For `CC(=O)N1CCN(CCOc2ccc(C3CCN(C4=Nn5c(nnc5C(F)(F)F)CC4)CC3)cc2)CC1` [AZD3514], the IC50 [10] was greater than 1780 nM and the bioavailability [11] was 75%.
Work on `COc1cccc(C(=O)Nc2ccc(Oc3ccc(O)cc3)c(C)c2)c1` yielded an IC50 [12] of 220 nM, an IC50 [13] greater than 10000 nM and an IC50 [14] of 43 nM. For the same compound, the IC50 [15] was 750 nM.
With `CNC(=O)c1ccc([C@]2(O)CCN(c3ccc(C#N)c(Cl)c3)[C@H]2C)cn1` the IC50 [16] was 830 nM, the IC50 [17] was 1700 nM and the IC50 [18] was 290 nM. The IC50 [19] was 1700 nM.
With `CCCN(CC(F)(F)F)c1cc(Br)c(C#N)s1` the IC50 [20] was 10 nM.
Work on `Brc1ncn(-c2csc(N3CCOCC3)n2)c1Br` yielded an IC50 [21] of less than 500 nM and an IC50 [22] of less than 500 nM.
`CC1(C)[C@H](NC(=O)c2cnn(CCO)c2)C(C)(C)[C@H]1Oc1ccc(C#N)c(Cl)c1` showed an Activity [23] greater than 90%.
For `NS(=O)(=O)c1cccc2cc(SCCOc3ccccc3)[nH]c12`, the IC50 [24] was 530 nM.
Compound `C[C@@]1(C(=O)Nc2ccc(C#N)c(C(F)(F)F)c2)CC(C(F)(F)F)=NN1` has an Activity [25] of 90% and an Activity [26] of 51%.
`Cc1nn(-c2ccc(C#N)c(Cl)c2)c(C)c1Cc1ccc(C(=O)NCC(C)(C)O)cc1` gave a T/C [27] of 23%.
In the case of `Cc1nn(-c2ccc(C#N)c(Cl)c2)c(C)c1Oc1ccc(C(=O)NC(C)(C)C)cn1`, the IC50 [16] is reported as 430 nM, the IC50 [28] is reported as 1000 nM and the T/C [29] is reported as 17%.
Compound `N#Cc1ncc(N2C(=O)C3(CCC3)N(c3ccc(OC4CCNCC4)nc3)C2=S)cc1C(F)(F)F` [TRC-253] has a bioavailability [30] of 45%, an inhibition in vivo at 30 mg/kg [31] of 87% and an IC50 [32] of 290 nM.
`CC(=O)OC[C@H](COc1ccc(C(C)(C)c2ccc(OC[C@@H](CCl)OC(C)=O)cc2)cc1)OC(C)=O` [RALANITEN ACETATE] gave an IC50 [33] of 9600 nM.
`Cc1nc(O[C@H]2C(C)(C)[C@H](NC(=O)c3cnc4ncccn34)C2(C)C)ccc1C#N` gave an Activity [34] greater than 90%.
